{"source": "patent US12377076B2", "about": "“Compounds for treating lymphoma or a T-cell malignant disease” (Purdue Pharma L.P., priority 2018, dated 2025)", "key": {"[1]": {"tested_on": "patients with MM", "experiment": "Tumour assessment: response to treatment, patients with multiple myeloma", "format": "in vivo, human", "conditions": "19 patients with MM", "from_the_text": "Response to treatment included evaluation of overall response rate (patients with a CR plus patients with a PR), clinical benefit (CB) rate (patients with CR plus patients with PR plus patients with stable disease (SD)), progression free survival, and overall survival according to the relevant response criteria."}, "[2]": {"tested_on": "lymphocytes", "experiment": "PK/PD safety modelling: dose-nadir relationship of blood cell counts, lymphocytes", "format": "in vivo, human", "conditions": "(% CV) in table", "from_the_text": "The obtained exposure parameters (Cmax and AUC) and PK profiles from individual patients and the respective haematological laboratory data were collected over the treatment duration and analysed regarding the relationship to peripheral blood cell counts (lymphocytes, neutrophils, platelets).\nThe nadir was defined as the lowest blood cell count observed after the first administration. The nadir was extracted irrespective of the treatment duration, thus, the analysis data set included patients who received only one dose and patients who received multiple treatment cycles with tinostamustine. The baseline blood cell count, which was the count before the first administration, was included in the analysis as the cell count at dose, Cmax or AUC equal to 0. Thus, it was assumed that the baseline blood cell count was the effect level without treatment with tinostamustine. With an exploratory analysis all observations each predictor-nadir relationship was fitted with a least-squares method in R. The dose-nadir relationship was further investigated with a non-linear mixed effects approach. The advantage of the non-linear mixed effects approach compared to the exploratory analysis was that different external and patient factors could be investigated at the same time and the between patient variability can be described. […]"}}, "note": "“And” between values parts separate entries of the source, which are not always exact repeats. Identical values can stand only once.", "data": [{"smiles": "Cn1c(CCCCCCC(=O)NO)nc2cc(N(CCCl)CCCl)ccc21", "note": "[tinostamustine]", "values": [{"measurement": "CBR", "setting": "[1]", "value": 42, "unit": "%"}, {"measurement": "ORR", "setting": "[1]", "value": 11, "unit": "%"}, {"measurement": "best response CR", "setting": "[1]", "value": 0, "unit": "patients"}, {"measurement": "best response PR", "setting": "[1]", "value": 11, "unit": "%"}, {"measurement": "best response SD", "setting": "[1]", "value": 31, "unit": "%"}, {"measurement": "best response of PD", "setting": "[1]", "value": 47, "unit": "%"}, {"measurement": "EC50 (dose required to reduce the cell count by 50%)", "setting": "[2]", "value": "28.3 mg/m^2 and 28.3 (40%) mg/m^2"}]}]}
